# Reference: patent US20120270928A1, “MICRORNA COMPOUNDS AND METHODS FOR MODULATING MIR-21 ACTIVITY” (REGULUS THERAPEUTICS INC., priority 2011, published 2012)
# Where “and” joins values, the source holds several entries; their conditions need not be identical. Equal entries are not always repeated.
# What was measured:
# [1] = test system: UUO model of kidney fibrosis; assay: Unilateral ureteral obstruction (UUO) model of kidney fibrosis: kidney collagen 1A1 and collagen 3A1 expression by real-time PCR; type: in vivo, mice; conditions: for Collagen 3A1 (Normalized Expression) Mean / Collagen 1A1 (Normalized Expression) Mean: group mean; for Collagen 1A1 (Normalized Expression) / Collagen 3A1 (Normalized Expression): individual animals, 20 mg/kg
# How it was run: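 Fibrosis induced by unilateral ureter ligation, groups of 8; anti-miR-21 compounds dosed at 20 mg/kg around surgery (days −3, −1, +5 or −5, −3, +3; repeat study subcutaneous at −5, −2, +3). Kidneys taken on day 10 or 11; Col1A1 and Col3A1 mRNA measured by real-time PCR, normalized to GAPDH and, in one study, also to sham.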
# [2] = test system: UUO model of kidney fibrosis; assay: UUO model: collagen area fraction of kidney tissue (picrosirius red histology); type: in vivo, mice; conditions: Table N, 25070 20 mg/kg s.c.
# Experimental: Control treatment groups included UUO only (sham) and UUO with PBS administered subcutaneously. An additional control group included UUO with Tween-MC/20 carrier perorally. 25070 administered subcutaneously at dose of 20 mg/kg at 5 days prior to, 2 days prior to, and 3 days after, the UUO procedure. Irbesartan was administered perorally on daily on days 0 through 7 following the UUO procedure. Animals were sacrificed on Day 10 following the UUO procedure. Kidney tissue was collected for measurement of collagen 1A1 and collagen 3A1 expression.
# The ‘collagen area fraction’ is measured histologically through quantitative image processing of the area of kidney tissue that is stained red by the picrosirius red stain; the percent detected as red is normalized by the area of kidney section.
# [3] = test system: model of ischemia reperfusion injury (IRI); assay: Unilateral ischemia reperfusion injury (IRI) model: kidney collagen 1A1 and collagen 3A1 expression; type: in vivo, mouse; conditions: for Collagen 3A1 (Normalized Expression) Mean / Collagen 1A1 (Normalized Expression) Mean: group mean; for Collagen 1A1 (Normalized Expression) / Collagen 3A1 (Normalized Expression): individual animals
# Experimental: A model of ischemia reperfusion injury (IRI) is created in the mouse through unilateral or bilateral clamping of kidney arteries, which leads to tubule damage, inflammation, and fibrosis. Kidney dysfunction can occur either early (<5 days) or late (>7 days) in this model, with the early time points useful to test candidate agents for the treatment of acute kidney injury, and the later time points useful to model chronic fibrosis.
# Anti-miR-21 compounds were tested in the unilateral IRI model. Unilateral IRI was induced for a period of 30 minutes. Treatment groups were as follows: sham IRI procedure; IRI with PBS administered subcutaneously; IRI with anti-miR-21 compound 25070 administered intraperitoneally at a dose of 20 mg/kg; the 2′-fluoro/2′-MOE modified anti-miR-21 25919 administered intraperitoneally at a dose of 20 mg/kg; and a 2′-fluoro/2′ modified mismatch anti-miR-21 (having three mismatches to the sequence of miR-21) 25319 administered intraperitoneally at a dose of 20 mg/kg. PBS or anti-miR compound was administered on days 5, 6, and 7 following IRI, and animals were sacrificed 14 days after IRI. As anti-miR compound is administered 5 days following the injury to the kidney, or later, when fibrosis has already occurred to some extent, this treatment regimen is considered a therapeutic regimen, rather than a prophylactic regimen.
# Kidney tissue was collected for analysis of collagen 1A1 and collagen 3A1 expression (shown in Table 0), and collagen area fraction (shown in Table P).
# A similar study was performed with the same treatment groups and additional days of treatment. In this study, treatments were administered intraperitoneally at days 5, 6, 7, 14, and 21 following the IRI procedure Animals were sacrificed on Day 27, and kidney tissue was collected for analysis of collagen 1A1 and collagen 3A1 expression, as well as collagen area fraction.
# In order to assess the flexibility of administration of the anti-miR-21 compound 25070, the activity of the compound in the 14 day study above, where anti-miR-21 was administered at […] following the IRI procedure, to a different 14 day study where anti-miR-21 was administered intraperitoneally at days 3, 5, and 7 following the IRI procedure.
# [4] = Ex vivo liver homogenate stability assay (HPLC-TOF MS); conditions: 5 μM oligonucleotide in liver homogenate (50 mg tissue per ml), 24 hours at 37° C.
# [5] = Table K, UUO mice, 20 mg/kg at days -3, -1, +5, kidney at day 11, UUO-PBS mean 87.2
# [6] = Table K, UUO mice, 20 mg/kg at days -3, -1, +5, kidney at day 11, UUO-PBS mean 114.9
# [7] = Table K, UUO mice, 20 mg/kg at days -3, -1, +5 (prophylactic), kidney at day 11, real-time PCR normalized to GAPDH then sham
# [8] = Table L, repeat UUO study, 20 mg/kg SC, prophylactic
# [9] = Table M, UUO, 25070 20 mg/kg s.c. 5 and 2 days prior to and 3 days after UUO, irbesartan PO daily days 0-7, sacrifice Day 10
# [10] = meta-analysis of UUO studies, 20 mg/kg at days -3, -1, +5, kidney at day 11
# [11] = repeated UUO study, subcutaneously 20 mg/kg, prophylactic
# [12] = Table O, unilateral IRI, 20 mg/kg intraperitoneally on days 5, 6, 7, day 14, IRI-PBS mean 63.9
# [13] = Table O, unilateral IRI, 20 mg/kg intraperitoneally on days 5, 6, 7, day 14, IRI-PBS mean 85.1
# [14] = Table O, unilateral IRI 30 minutes, 20 mg/kg intraperitoneally on days 5, 6, 7 (therapeutic), sacrifice 14 days after IRI, 20 mg/kg
# [15] = IRI mouse, 14 day study, dosing Day 5, 6, 7, relative to sham
# [16] = IRI mouse, 14 day study, intraperitoneal dosing Day 3, 5, 7, relative to sham
# [17] = unilateral IRI mouse, 20 mg/kg intraperitoneally on days 5, 6, 7, 14, and 21, kidney, sacrificed Day 27
# [18] = unilateral IRI mouse, 20 mg/kg intraperitoneally on days 5, 6, 7, 14, and 21, kidney, sacrificed Day 27, 20 mg/kg
sequence,measurement,setting,value
"AECSATCSAGTCSTGAUSAAGCSTAE (ACATCAGTCTGATAAGCTA; modified nucleosides, phosphorothioate linkages, chemistry not fully specified) [Compound 25070]",Collagen 3A1 (Normalized Expression) Mean,[1]; [5],55.5
same,Collagen 1A1 (Normalized Expression) Mean,[1]; [6],81.0
same,Collagen 1A1 (Normalized Expression),[1]; [7],67.7 and 97.7 and 88.8 and 95.9 and 71.4 and 44.5 and 73.0 and 109.4
same,Collagen 3A1 (Normalized Expression),[1]; [7],36.4 and 75.6 and 47.3 and 55.5 and 63.3 and 28.5 and 64.2 and 72.9
same,Collagen 3A1 (Normalized Expression) Mean,"[1]; Table L, repeat UUO study, 20 mg/kg SC, prophylactic, UUO-PBS mean 58.8",42.4
same,Collagen 1A1 (Normalized Expression) Mean,"[1]; Table L, repeat UUO study, 20 mg/kg SC, prophylactic, UUO-PBS mean 74.3",30.2
same,Collagen 1A1 (Normalized Expression),[1]; [8],13.9 and 9.2 and 32.3 and 57.2 and 47.6 and 26.1 and 35.0 and 20.4
same,Collagen 3A1 (Normalized Expression),[1]; [8],34.9 and 47.4 and 25.3 and 38.0 and 47.9 and 54.3 and 56.1 and 35.2
same,Collagen 3A1 (Normalized Expression) Mean,"[1]; Table M, UUO, 25070 20 mg/kg s.c., irbesartan PO daily days 0-7, Day 10, UUO-PBS 93.2, Tween/MC vehicle 132.4",53.7
same,Collagen 1A1 (Normalized Expression) Mean,"[1]; Table M, UUO, 25070 20 mg/kg s.c., irbesartan PO daily days 0-7, Day 10, UUO-PBS 129.6, Tween/MC vehicle 150.2",64.2
same,Collagen 1A1 (Normalized Expression),[1]; [9],87.5 and 67.4 and 22.2 and 61.9 and 42.0 and 69.2 and 68.4 and 95.2
same,Collagen 3A1 (Normalized Expression),[1]; [9],38.6 and 56.9 and 77.2 and 50.7 and 76.4 and 49.7 and 44.3 and 35.9
same,reduction in Col3a1 expression (significance),"[1]; UUO, comparison with irbesartan, sacrifice Day 10",statistically significant reductions
same,reduction in Col1A1 expression relative to saline-treated animals (significance),"[1]; UUO, comparison with irbesartan, sacrifice Day 10, p<0.05 by one-way ANOVA",statistically significant reduction
same,reduction in collagen expression (in words),"[1]; meta-analysis of UUO studies, 20 mg/kg at days -3, -1, +5",greatest potency
same,inhibition of collagen 1A1,[1]; [10],40%
same,inhibition of collagen 3A1,[1]; [10],30%
same,collagen 1A1 expression (in words),[1]; [11],potent inhibitor of collagen 1A1 and collagen 3A1 expression
same,collagen 3A1 expression (in words),[1]; [11],potent inhibitor of collagen 1A1 and collagen 3A1 expression
same,Collagen Area Fraction (%) Mean,"[2]; group mean, irbesartan PO, Day 10, UUO-PBS 11.1, Tween/MC vehicle 8.0",8.0%
same,Collagen Area Fraction (%),"[2]; individual animals, irbesartan PO daily days 0-7, Day 10, picrosirius red, 20 mg/kg",7.632% and 9.937% and 8.015% and 6.611% and 6.319% and 11.272% and 6.803% and 7.405%
same,"reduction of collagen expression (collagen 1A1 or collagen 3A1, significance)","[3]; IRI, 14 day studies, either dosing schedule (days 5, 6, 7 or days 3, 5, 7)",statistically significant reduction of collagen expression with either dosing schedule
same,Collagen 3A1 (Normalized Expression) Mean,[3]; [12],34.2
same,Collagen 1A1 (Normalized Expression) Mean,[3]; [13],50.2
same,Collagen 1A1 (Normalized Expression),[3]; [14],81.7 and 57.4 and 37.9 and 55.3 and 22.3 and 52.4 and 53.0 and 41.5
same,Collagen 3A1 (Normalized Expression),[3]; [14],57.8 and 18.1 and 39.3 and 36.0 and 20.6 and 38.6 and 33.4 and 29.7
same,Collagen 1A1 (Normalized Expression) Mean,[3]; [15],24.5
same,Collagen 3A1 (Normalized Expression) Mean,[3]; [15],26.2
same,Collagen 1A1 (Normalized Expression) Mean,[3]; [16],27.2
same,Collagen 3A1 (Normalized Expression) Mean,[3]; [16],27.9
same,Collagen 1A1 (Normalized Expression) Mean,[3]; [17],31.4
same,Collagen 3A1 (Normalized Expression) Mean,[3]; [17],20.8
same,Collagen 1A1 (Normalized Expression),[3]; [15],21.7 and 22.8 and 15.8 and 27.6 and 27.1 and 29.3 and 10.8 and 21.5 and 29.9 and 35.0 and 28.3 and 24.2
same,Collagen 3A1 (Normalized Expression),[3]; [15],24.9 and 26.3 and 13.6 and 25.4 and 32.7 and 29.9 and 9.7 and 22.2 and 33.2 and 35.4 and 32.3 and 28.9
same,Collagen 1A1 (Normalized Expression),[3]; [16],37.5 and 21.9 and 35.3 and 26.0 and 24.9 and 16.8 and 30.8 and 34.3 and 36.8 and 9.4 and 28.0 and 24.6
same,Collagen 3A1 (Normalized Expression),[3]; [16],35.3 and 23.6 and 32.1 and 25.1 and 31.3 and 18.6 and 30.3 and 37.6 and 40.0 and 9.5 and 23.2 and 28.7
same,Collagen 1A1 (Normalized Expression),[3]; [18],26.4 and 37.4 and 41.9 and 36.8 and 14.1 and 27.7 and 29.4 and 37.6
same,Collagen 3A1 (Normalized Expression),[3]; [18],16.4 and 27.0 and 28.5 and 19.6 and 11.3 and 19.3 and 21.4 and 23.1
same,compound lacking the 3′-terminal nucleoside,[4],about 27%
same,compound present as the full-length compound,[4],about 58%
"UECEAFAFCFAFUFCFAFGFUFCEUEGEAFUFAFAFGFCFUEAE (antisense TCAACATCAGTCTGATAAGCTA; listed as DNA, chemistry not fully specified) [Compound 25919, reference compound]",Collagen 3A1 (Normalized Expression) Mean,[1]; [5],56.9
same,Collagen 1A1 (Normalized Expression) Mean,[1]; [6],86.6
same,Collagen 1A1 (Normalized Expression),[1]; [7],150.2 and 54.2 and 84.6 and 67.7 and 78.7 and 62.2 and 89.2 and 106.2
same,Collagen 3A1 (Normalized Expression),[1]; [7],67.1 and 33.9 and 87.6 and 47.3 and 67.7 and 46.7 and 47.0 and 57.8
same,Collagen 3A1 (Normalized Expression) Mean,[3]; [12],59.9
same,Collagen 1A1 (Normalized Expression) Mean,[3]; [13],72.0
same,Collagen 1A1 (Normalized Expression),[3]; [14],108.7 and 103.9 and 29.5 and 95.8 and 35.5 and 42.2 and 64.1 and 96.4
same,Collagen 3A1 (Normalized Expression),[3]; [14],87.5 and 72.3 and 14.3 and 104.4 and 27.1 and 34.9 and 56.1 and 82.8
same,Collagen 1A1 (Normalized Expression) Mean,[3]; [17],48.3
same,Collagen 3A1 (Normalized Expression) Mean,[3]; [17],34.9
same,Collagen 1A1 (Normalized Expression),[3]; [18],75.5 and 50.4 and 49.2 and 43.2 and 41.7 and 53.6 and 44.8 and 28.0
same,Collagen 3A1 (Normalized Expression),[3]; [18],40.2 and 43.1 and 34.5 and 35.7 and 41.1 and 36.9 and 24.5 and 22.9
